Test results: publication PMC11623267, “Inhibitors of malaria parasite cyclic nucleotide phosphodiesterases block asexual blood-stage development and mosquito transmission” (Science Advances, 2024)
Read-outs that look alike come from different tables or passages of the source. One block for each molecule: values may come before it.

Tests used:
[1] = test system: PDE activity in cell extracts of malaria parasites; set-up: method as in PMID 16038615, PMID 25951195; details: read-out: IC50 against PDE activity in cell extracts; cited from earlier work
[2] = test system: P. falciparum Dd2; test: Ex vivo 72-hour SYBR Green assay, Dd2 control (Uganda); assay type: cell-based, Plasmodium falciparum; details: Plasmodium falciparum, DD2, read-out: EC50 lab strain Dd2
Description: (§1) Samples were delivered to the adjacent IDRC laboratory at Tororo District Hospital or transported by car from Masafu Hospital on the day of collection for storage of blood spots on filter paper (for isolation of nucleic acids) and initiation of ex vivo culture of malaria parasites. […] Before assay, 10 mM antimalarial stock compounds were diluted as necessary in DMSO and stored at −20°C. […] Compounds were serially diluted threefold in a 96-well assay plate in complete medium to a final volume of 50 μl, in columns 1 to 10, with concentrations optimized to capture full dose-response curves. Column 11 contained compound-free controls, while column 12 contained uninfected human RBC controls. Parasite culture (150 μl) was added to columns 1 to 11 of the assay plate with a final volume of 200 μl per well, 0.2% parasitemia, and 2% hematocrit. […] Thawed plates were incubated with SYBR Green lysis buffer for 1 hour in the dark as previously reported ([62]). Fluorescence was quantified using a BMG Fluostar Optima plate reader at an excitation of 485 nm and an emission of 530 nm, and data were plotted using GraphPad Prism 7. The data were curve fit with a variable slope function to estimate IC50 values. For each isolate, a Z′ factor to assess assay quality was calculated from positive controls (eight drug-free wells) and negative controls (eight parasite-free, red cell control wells). Z′ values over 0.5 were considered good assays, but each curve was also examined by eye for suitability. Some assays with Z′ below 0.5 may be considered valid depending on factors such as the SE of the curve-fit IC50.

[3] = test system: P. falciparum (clone 3D7); test: Parasite reduction ratio (PRR) assay; assay type: cell-based, Plasmodium falciparum; details: for Slope: 10× EC50, 3D7 killing profile
Description: The in vitro killing profile of compounds was determined by monitoring the ability of parasites to recover following treatment with a compound of interest using a previously reported approach ([50]), which allowed calculation of the PRR ([51]). […] To quantify the number of viable parasites following treatment, four independent sets of threefold serial dilutions were performed on each sample, which were assayed for the presence or absence of parasites after 28 days using the LDH assay, and the number of viable parasites was determined by the number of wells showing growth. PRR and PCT99.9% were calculated as previously reported ([50]).

[4] = test system: P. falciparum clinical isolates from Tororo and Busia Districts of Uganda; test: Ex vivo 72-hour SYBR Green assay, Ugandan clinical isolates; assay type: cell-based, Plasmodium falciparum; details: Plasmodium falciparum
Source text: Clinical isolates were from the Tororo District of Uganda, located in the central-eastern part of the county near the Kenya border. Tororo and surrounding areas have high-intensity, year-round malaria transmission. […] Patients reporting use of antimalarial treatment within the previous 30 days or with evidence of an infection with other Plasmodium species were excluded. Informed consent was obtained from patients and/or primary care givers (depending on age); children aged 8 to 17 years provided assent. Two to 5 ml of blood was collected by venipuncture in a heparin tube. Samples were delivered to the adjacent IDRC laboratory at Tororo District Hospital or transported by car from Masafu Hospital on the day of collections for storage of blood spots on filter paper (for isolation of nucleic acids) and initiation of ex vivo culture of malaria parasites. Treatment involved a standard therapeutic regimen for uncomplicated falciparum malaria, which was a 3-day course of the artemisinin-based combination therapy (ACT), artemether-lumefantrine. In Uganda, at the time of sampling, there was widespread resistance to the antifolate drugs due to mutant pfdhfr/pfdhps alleles. […] Chloroquine was prepared at 10 mM in water. Stock solutions were stored at −20°C. Working solutions were freshly prepared from a single aliquot within 4 hours of the susceptibility test and stored at 4°C.
as §1

[5] = test system: P. falciparum 3D7; test: Ex vivo 72-hour SYBR Green assay, 3D7 control (Uganda); assay type: cell-based, Plasmodium falciparum; details: Plasmodium falciparum, 3D7, read-out: EC50 lab strain 3D7
Description: as §1

[6] = test system: P. falciparum clinical isolates from Porto Velho, Brazil; test: Ex vivo schizont maturation assay, Brazilian clinical isolates; assay type: cell-based, Plasmodium falciparum; details: Plasmodium falciparum
Description: Only monoinfected patients with P. falciparum with parasitemia between 2000 and 80,000 parasites/μl and with at least 70% of ring-stage parasites were recruited. Patients who had used an antimalarial in the previous month and/or presented with symptoms of severe malaria were excluded from the study. The study cohort comprised 24 patients living in this highly endemic area. A peripheral venous blood sample (5 ml) was collected from each individual by venipuncture in heparin-containing tubes and immediately used in the ex vivo drug susceptibility assay using preprepared plates containing diluted antimalarial compounds. […] Last, 20 μl of each dilution was transferred into the ex vivo assay plate and diluted 10-fold into the final assay medium containing parasites. For the infected blood preparation, 5 ml of whole blood was centrifuged at 800g for 10 min, and the plasma and buffy coat were removed. […] Control assays on a 3D7 laboratory isolate were performed with medium supplemented with human serum (20%). The iRBC (180 μl per well) were distributed in the predosed drug plate. […] Control wells containing drug-free iRBCs were cultured with complete medium. The parasite-drug incubation was terminated when 40% of the ring stages reached the schizont stage (at least three distinct nuclei per parasite) in the drug-free control wells. Thick blood films were then made from each well, dried, stained with 5% Giemsa solution for 30 min, and examined microscopically. The number of schizonts per 200 asexual-stage parasites was determined for each drug concentration and then normalized by comparing with the schizont number in the drug-free control wells [considered as 100% ([64])]. The half-maximal drug inhibitory response (EC50) was estimated by curve fitting using software from the OriginLab Corporation, Northampton, MA, USA and comparing with parasite growth in the drug-free controls.

[7] = test system: P. falciparum Dd2-B2 lines selected under drug pressure; test: 72-hour flow cytometry EC50 assay, lines selected under drug pressure; assay type: cell-based, Plasmodium falciparum; details: for EC50: Plasmodium falciparum
Description: Three examples of an additional compound series developed independently [NPD-2958, NPD-3518 ([31]), and NPD-3738; fig.
(§2) Stocks of SAL-0010003 (5-benzyl), SAL-0010355 (5-aryl), and SAL-0010419 (2-alkyl) were made at 10 and 1 mM in DMSO. Aliquots in use were stored at −20°C, and long-term storage was at −80°C. All in vitro studies were done such that the final DMSO concentration was <0.5%. P. falciparum ABS parasites were cultured at 3% hematocrit in human O+ RBCs in RPMI 1640 medium, supplemented with 25 mM Hepes, 50 mg L-hypoxanthine, 2 mM L-glutamine, 0.225% sodium bicarbonate, 0.5% (w/v) AlbuMAX II (Invitrogen) and gentamycin (10 μg/ml), in modular incubator chambers (Billups-Rothenberg) at 5% O2, 5% CO2, and 90% N2 at 37°C. Dd2-B2 (obtained from T. Wellems, National Institute of Allergy and Infectious Diseases, National Institutes of Health) is a genetically homogenous line that was cloned from Dd2 by limiting dilution. To define the EC50 and EC90 values of ABS parasites, Dd2-B2 ring-stage cultures at 0.2% parasitemia and 1% hematocrit were exposed for 72 hours to a range of 10 drug concentrations that were twofold serially diluted in duplicates along with drug-free controls. Parasite survival was assessed by flow cytometry on an iQue flow cytometer (Sartorius) using SYBR Green and MitoTracker Deep Red FM (Life Technologies) as nuclear stain and vital dyes, respectively. After determination of the EC50 and EC90 values for the three compounds with the P. falciparum Dd2-B2 clone, one single-step selection was set up using 2 × 10^5 parasites in each well of a 96-well plate at a starting concentration of 3× EC90. Parasites were cleared from the culture rapidly, and cultures were screened three times weekly by flow cytometry and counted as positive for recrudescence when the overall parasitemia reached 0.3% and the parasites were visible on a blood smear. DNA was extracted from recrudescent lines using a QIAGEN QIAamp Blood Mini Kit, and libraries were prepared with the Illumina DNA Prep kit for whole-genome sequencing on the Illumina MiSeq using a V3 2 × 300–base pair flow cell.

[8] = test system: HepG2 cells; test: HepG2 cytotoxicity; assay type: cell-based
Source text: Table 1. Key activity data for the three main chemical subseries against ABS parasites, parasite fractions, and HepG2 cells. ND, not determined; ×/÷ is the geometric mean with geometric SD. | column: HepG2 EC50 (nM) (selectivity index)

[9] = test system: P. falciparum Dd2-B2; test: 72-hour flow cytometry EC50 assay, Dd2-B2 parental line; assay type: cell-based, Plasmodium falciparum; details: Plasmodium falciparum, DD2, read-out: EC50 Dd2-B2 parental line
Description: as §2

[10] = read-out: EC50 clinical isolates, Gmean (geometric mean)
[11] = read-out: EC50 clinical isolates, Median
[12] = read-out: EC50 clinical isolates, Range

SMILES: CC(C)Cn1c(=O)n(C)c(=O)c2[nH]cnc21 [3-isobutyl-1-methylxanthine]
- IC50 [1]: > 100000 nM

SMILES: CCc1nc(N)nc(N)c1-c1ccc(Cl)cc1 [Pyrimethamine, reference compound]
- EC50 [2]: 21700 nM
- Lag phase ([3]; 10× EC50, 3D7): 24 h
- Log PRR ([3]; 10× EC50, 3D7): 3.2
- PCT99.9% (hours taken to kill 99.9% of the parasites) ([3]; 10× EC50, 3D7): 63.1 h
- Slope [3]: −0.0667 ± 0.0059
- EC50 [4, 10]: 41600 nM
- EC50 [4, 11]: 39300 nM
- EC50 [4, 12]: 15900 to 196000 nM
- EC50 ([4]; read-out: Geometric mean EC50, Ugandan isolates (Fig. 3B)): 41600 nM
- EC50 [5]: 46 nM

SMILES: Cn1c(=O)c2c(ncn2C)n(C)c1=O [caffeine]
- IC50 [1]: > 100000 nM

SMILES: Cn1c(=O)c2[nH]cnc2n(C)c1=O [theophylline]
- IC50 [1]: > 100000 nM

- EC50 ([6]; read-out: EC50 range, clinical isolates): 626 to 2600 nM
- EC50 ([6]; read-out: Median EC50, clinical isolates): 1200 nM
- EC50 [2]: 347 nM
- EC50 [4, 10]: 13 nM
- EC50 [4, 11]: 14 nM
- EC50 [4, 12]: 2 to 25 nM
- EC50 [5]: 9.4 nM
SMILES: CCN(CC)CCCC(C)Nc1ccnc2cc(Cl)ccc12 (stereo not shown) [Chloroquine, reference compound]
- Lag phase ([3]; 10× EC50, 3D7): 0 h
- PCT99.9% (hours taken to kill 99.9% of the parasites) ([3]; 10× EC50, 3D7): 39.0 h
- Slope [3]: −0.0717 ± 0.0037

SMILES: CC(C)COc1ccc(C(=O)N2CC(N(C)C)C2)cc1-c1nc2c(C(C)C)n[nH]c2c(=O)[nH]1 [SAL-0010355]
- EC50 ([7]; DD2, read-out: EC50, line selected with SAL-0010355, Well B7): 430 nM
- EC50 ([7]; DD2, read-out: EC50, line selected with SAL-0010355, Well D7): 468 nM
- EC50 ([7]; DD2, read-out: EC50, line selected with SAL-0010355, Well D9): 371 nM
- Mean fold change in EC50 ([7]; selected lines vs Dd2-B2 parental line, ±SD): 6.1 ± 0.7 fold
- EC50 shift, line selected with SAL-0010355, Well B7 ([7]; vs Dd2-B2): 6.2 fold
- EC50 shift, line selected with SAL-0010355, Well D7 ([7]; vs Dd2-B2): 6.8 fold
- EC50 shift, line selected with SAL-0010355, Well D9 ([7]; vs Dd2-B2): 5.4 fold
- EC50 ([8]; Homo sapiens, HepG2): > 25000 nM
- HepG2 selectivity index ([8]; value in brackets after HepG2 EC50): 1,185
- EC50 [9]: 69.2 nM

SMILES: COc1ccc(C2CNC(=O)C2)cc1OC1CCCC1 (stereo not shown) [rolipram]
- IC50 [1]: > 100000 nM
